Test results from patent US20090306093A1, “METHOD FOR TREATING PATIENT HAVING BENIGN PROSTATE HYPERPLASIA” (KAOHSIUNG MEDICAL UNIVERSITY, priority 2008, published 2009).

Key:
[1] = tested on: phenylephrine (10 μM) pre-contracted rat isolated prostate; test: Relaxation of phenylephrine pre-contracted rat isolated prostate strips (isometric tension); conditions: for relaxation: 10 μM, 1 hour
Protocol: The rat isolated prostate tissue was prepared as previously described with modifications^[10]. Briefly, Wistar rats (300-400 g) were killed with pentobarbital sodium (30 mg/kg) and the ventral part of their prostates were quickly excised. […] O2 and 5% CO2.
Isometric tension was recorded with a force displacement transducer (UGO BASILE, Model 7004, Italy). After the equilibration period, the strips were primed twice by adding 10 μM of the agonist, phenylephrine, to reach 80-100% of maximum contraction. […] The relaxation on rat prostate by KMUP-1 (0.01-100 μM) and tamsulosin (0.001 nM-100 μM) were also tested by their combination with sildenafil (0.1 μM), respectively. In isolated prostate strips, while stable constriction to phenylephrine was reached, sildenafil (0.1 μM) was pre-incubation for 30 minutes, before the cumulative addition of KMUP-1 (0.01-100 μM) or tamsulosin (0.001 nM-100 μM) to isolated prostate strips. In another experiment, to examine the possible mechanism of action of KMUP-1, rat prostates were pretreated with ODQ (1H-[1,2,4]oxadiazolo[4,3-a]quinoxalin-1-one, 10 μM, sGC inhibitor), RP-8pCPT-cGMPs (10 μM, PKG inhibitor), glibenclamide (10 μM, KATP channel blocker), 4-AP (4-aminopyridine, 100 μM, voltage-dependent K^+ channel blocker), apamin (1 μM, Ca^2+-dependent K^+ channel blocker) and charybdotoxin (ChTX) (0.1 μM, Ca^2+-dependent K^+ channel blocker) for 30 minutes before addition of KMUP-1 (100 μM).

ROCK2 = test: Western blot of phenylephrine-induced Rho kinase (ROCK2) expression in rat prostate; conditions: KMUP-1 10, 100 μM; Y-27632 10 μM; phenylephrine 10 μM
Protocol: In order to examine the expression of Rho kinase in prostate, the prostate strips were pre-incubated with phenylephrine (10 μM) for 30 minutes. After a pre-treatment of phenylephrine, KMUP-1 (10-100 μM) and Y-27632 (10 μM) were further incubated for 30 minutes. After the incubation time, the prostate were extracted with protein extraction reagent (Pierce Biotechnology, Inc., Rockford, Ill., USA.). The PZ-HPV-7 cells were incubated with and without KMUP-1 (0.1-10 μM) at 30 minutes, 8 and 24 hours. They were then washed rapidly with ice-cold PBS, incubated with protein extraction reagent, and scraped from the plates. The prostate tissues and cells were sonicated three times for 10 second each time and centrifuged at 13,000 rpm at 4° C. for 30 minutes. The protein concentrations of supernatants were determined, using bovine serum albumin as the standard. Tissue and cell extract protein were then boiled at a ratio of 4:1 with sample buffer (100 mM Tris, pH 6.8, 20% glycerol, 4% SDS, and 0.2% bromphenol blue). 40-60 μg protein was used in this experiment. Electrophoresis was performed using 10 or 12% SDS-polyacrylamide gel electrophoresis and then transferred to nitrocellulose membranes (Millipore Corporation, Billerica, Mass.). […] The intensity of the bands was measured by densitometry.

a1A-adrenergic receptor = conditions: data from the reference; cited from earlier work
cGMP = test: Determination of cGMP in rat isolated prostate (radioimmunoassay); conditions: 100 μM, 1 hour
Protocol: Isolated prostate strips from Wistar rats were prepared to determine prostate levels of cGMP and cAMP. Briefly, prostate strips were respectively incubated with KMUP-1 (10-100 μM), sildenafil (100 μM), and zaprinast (100 μM) in 10 mL Tyrode solution aerated with 95% O2 and 5% CO2 for 1 hour. To examine the possible mechanisms of action of KMUP-1, the rat prostate was pretreated with ODQ (10 μM, sGC inhibitor) and SQ22536 (9-(tetrahydro-2-furanyl)-9H-purin-6-amine, 10 μM, adenylyl cyclase inhibitor) for 30 minutes before KMUP-1 was added. After the incubation, the prostate tissues were extracted with 1 mL of 0.1 N HCl. The extracts were then lyophilized for a further measurement of cyclic GMP or cyclic AMP of each sample, using commercially available radioimmunoassay kits (Amersham Pharmacia Biotech, Buckinghamshire, England).

PKG = test: Western blot of PKG expression in rat prostate; conditions: KMUP-1 10, 100 μM; sildenafil, zaprinast 100 μM
Protocol: (§1) Prostate strips were incubated with KMUP-1 (10-100 μM), sildenafil (100 μM) and zaprinast (100 μM) in 10 mL Tyrode solution aerated with 95% O2 and 5% CO2 for 1 hour. To examine the possible mechanisms of KMUP-1 action, the rat prostate were pretreated with ODQ (10 μM), SQ22536 (10 μM) and RP-8pCPT-cGMPs (10 μM) for 30 minutes prior to the addition of KMUP-1 (100 μM).
(§2) In order to examine the expression of Rho kinase in prostate, the prostate strips were pre-incubated with phenylephrine (10 μM) for 30 minutes. After a pre-treatment of phenylephrine, KMUP-1 (10-100 μM) and Y-27632 (10 μM) were further incubated for 30 minutes. After the incubation time, the prostate were extracted with protein extraction reagent (Pierce Biotechnology, Inc., Rockford, Ill., USA.). The PZ-HPV-7 cells were incubated with and without KMUP-1 (0.1-10 μM) at 30 minutes, 8 and 24 hours. They were then washed rapidly with ice-cold PBS, incubated with protein extraction reagent, and scraped from the plates. The prostate tissues and cells were sonicated three times for 10 second each time and centrifuged at 13,000 rpm at 4° C. for 30 minutes. The protein concentrations of supernatants were determined, using bovine serum albumin as the standard. Tissue and cell extract protein were then boiled at a ratio of 4:1 with sample buffer (100 mM Tris, pH 6.8, 20% glycerol, 4% SDS, and 0.2% bromphenol blue). 40-60 μg protein was used in this experiment. Electrophoresis was performed using 10 or 12% SDS-polyacrylamide gel electrophoresis and then transferred to nitrocellulose membranes (Millipore Corporation, Billerica, Mass.). The membrane was blocked with Tris-buffered saline (20 mM Tris and 137 mM NaCl, pH 7.6) containing 0.1% Tween 20 (TTBS) and 5% non-fat milk at room temperature for 1 hour, washed with TTBS, and then incubated overnight at 4° C. in the appropriate primary antibody of PKG (Santa Cruz, 1:200), sGCa1 (Santa Cruz, 1:200), PKA (Abcam, 1:1000), ROCK2 (Upstate, 1:1000), and PDE5A (BD Biosciences, 1:1000), p21 (Upstate, 1:1000). The membranes were washed in TTBS before being incubated with horseradish peroxidase-conjugated antibody against mouse, goat, or rabbit IgG (Santa Cruz, 1:1000) for 1 hour. The membrane was then washed in TTBS and developed with the enhanced chemiluminescence (ECL) for the detection of the specific antigen. The intensity of the bands was measured by densitometry.

sGCa1 = test: Western blot of sGCa1 expression in rat prostate; conditions: KMUP-1 10-100 μM; sildenafil, zaprinast 100 μM; 1 hour
Protocol: as §1, §2

[2] = phenylephrine 10 μM pre-contracted

Compound	relaxation [1, 2] [%]	Receptor Affinity (pKi) a1A (a1A-adrenergic receptor)	cGMP levels (cGMP) [pmol mg^−1 protein]	expression of PKG (PKG)	expression of sGCa1 (sGCa1)	also measured
Nc1nc2c(nc(Sc3ccc(Cl)cc3)n2C2O[C@@H]3COP(=O)(O)O[C@H]3[C@H]2O)c(=O)[nH]1 (stereo in doubt) [8-pCPT-cGMP, reference compound]	35.00±4.40					
C[C@@H](N)[C@H]1CC[C@H](C(=O)Nc2ccncc2)CC1 [Y-27632, reference compound]						phenylephrine-induced Rho kinase expression (ROCK2): protected against phenylephrine-induced Rho kinase expression
COc1cc2nc(N3CCN(C(=O)C4COc5ccccc5O4)CC3)nc(N)c2cc1OC (centres unmarked) [doxazosin, reference compound]	73.00±2.8	8.56				
CCCc1nn(C)c2c(=O)[nH]c(-c3cc(S(=O)(=O)N4CCN(C)CC4)ccc3OCC)nc12 [sildenafil, reference compound]	50.00±6.37		3.20±0.61	significantly induce	do not significantly induce	relaxation ability ([1]; 0.1 μM, phenylephrine 10 μM pre-contracted): 21.50±2.12%; relaxation ability ([1]; fourth value of the sentence, concentration not given): 78.00±8.02%
CCOc1ccccc1OCCN[C@H](C)Cc1ccc(OC)c(S(N)(=O)=O)c1 [tamsulosin, reference compound]	107.50±6.76	9.7				relaxation activity ([1]; 100 μM combined with sildenafil 0.1 μM): 140.00±10.14%; relaxation ability ([1]; 100 μM, phenylephrine 10 μM pre-contracted): 118.00±10.79%; Selective Ratio a1A/a1B (a1A-adrenergic receptor): 6.3; Selective Ratio a1A/a1D (a1A-adrenergic receptor): 0.2
CCCOc1ccccc1-c1nc2nn[nH]c2c(=O)[nH]1 [zaprinast, reference compound]	79.00±5.00		2.23±0.24	significantly induce	do not significantly induce	
